Results: article PMC12410356 (International Journal for Parasitology: Drugs and Drug …, 2025)

Assays:
[1] = test system: E. multilocularis metacestode vesicles; assay: Metacestode vesicle viability assay (ATP, CellTiter-Glo); assay type: cell-based, Echinococcus multilocularis
Method: Viability was assessed after 12 days using the same metacestode vesicles as for the PGI release assay. Triton X-100 was added to each well to a final concentration of 0.1 %. Subsequently the metacestode vesicles were broken mechanically and 50 μL of the supernatant was mixed with 50 μL of CellTiter-Glo® buffer (Promega, Dübendorf, Switzerland). Measurements were performed on a HIDEX Sense microplate reader.

[2] = test system: E. multilocularis metacestode vesicles; assay: Phosphoglucose isomerase (PGI) release assay (damage-marker release) on metacestode vesicles; assay type: cell-based, Echinococcus multilocularis; settings: 10 μM; for PGI d5 (relative PGI release): 5 days; for PGI d12 (relative PGI release): 12 days
[3] = overview screen, 10 μM, singlets, 12 days, relative to DMSO control
[4] = overview screen, singlets, relative to 0.1 % Triton X-100, DMSO subtracted
[5] = confirmation screen, 10 μM, triplicates, mean, 12 days
[6] = confirmation screen, triplicates, mean

| Structure (SMILES) | Viability d12 (relative viability) [1, 3] [%] | PGI d5 (relative PGI release) [2, 4] [%] | PGI d12 (relative PGI release) [2, 4] [%] | other results |
| --- | --- | --- | --- | --- |
| CC(=N)N1CC[C@H](SC2=C(C(=O)O)N3C(=O)[C@@H]([C@@H](C)O)[C@H]3C2)C1 [MMV1582382] | 19.8723 | -2.073 | -11.6677 |  |
| CCCCCCCCC(CP(=O)(O)C(C)N)C(=O)O (centres unmarked) [MMV1582487] | 34.1503 | -0.4977 | -10.5393 |  |
| Cl.Nc1nc(-c2ccccc2)nc2c1ncn2[C@@H]1O[C@H](COS(=O)(=O)NC(=O)c2ccccc2O)[C@@H](O)[C@H]1O [MMV1582488] | 117.234 | -1.401 | 11.4821 |  |
| Cc1c[nH]c(=O)nc1NCc1ccccc1 [MMV1582489] | 140.789 | -0.6323 | -1.8719 |  |
| CCc1cc(Cc2cnc(N)nc2N)cc2c1N(C)CCC2C (centres unmarked) [MMV1582490] | 27.4864 | 9.437 | 80.495 | Viability d12 (relative viability) [1, 5]: 117.48%; PGI d5 (relative PGI release) [2, 6]: 0.0536%; PGI d12 (relative PGI release) [2, 6]: -0.39% |
| O=C(CCCC(F)(F)F)N1CCC(c2nc(-c3nccs3)no2)CC1 [MMV1582491] | 18.4528 | 0.6914 | 59.8611 | Viability d12 (relative viability) [1, 5]: 57.90%; PGI d5 (relative PGI release) [2, 6]: -0.08%; PGI d12 (relative PGI release) [2, 6]: -0.04% |
| Cc1nc(-c2ccc(C3N(C)c4ccc(F)cc4C(=O)N3c3ccccc3)s2)cs1 (centres unmarked) [MMV1582492] | 101.198 | -1.6173 | -12.6909 |  |
| C[C@@H](NC(=O)c1ccccc1-c1ccccc1)B(O)O [MMV1582493] | 135.265 | -2.006 | 35.0936 |  |
| C[C@@H](O)[C@H](N)C(=O)NS(=O)(=O)c1cccc(-c2ccc3[nH]ncc3c2)c1.Cl.Cl [MMV1582494] | 90.2603 | -2.197 | -25.2892 |  |
| C(=C\c1nc2ccccc2[nH]1)/c1ccc2c(c1)OCO2 [MMV1582495] | 98.8605 | -1.5423 | -10.1943 |  |
| N#Cc1c(F)c(Cl)c(NCc2ccccc2)c(C#N)c1F [MMV1582496, 4-(benzylamino)-5-chloro-2,6-difluorobenzene-1,3-dicarbonitrile] |  | 23.5135 | 27.7197 | viability at 10 µM ([1]; Echinococcus multilocularis, 288 h, overview screen, 10 μM, singlets, 12 days, relative to DMSO control, read-out: Viability d12 (relative viability)): 121%; effect on metacestode vesicle viability (in words) ([1]; overview screen, 10 μM, twelve days, cut-off viability ≤30 %): did not reduce the metacestode vesicle viability; activity in the PGI release assay (in words) ([2]; overview screen, twelve days, cut-off PGI release ≥20 %): active in the PGI assay after twelve days |
| CC(C)c1ccc(COc2cccc(-c3cc([S+](C)[O-])c(C#N)c(=O)[nH]3)c2)cc1 (centres unmarked) [MMV1582497] | 210.079 | 3.781 | -9.364 |  |
| Cc1cc(Nc2ccc(F)cc2)nc(SCc2nc3ccccc3[nH]2)n1 [MMV1582498] | 46.2574 | 0.3642 | 1.096 |  |
| CCC(CC)[C@H](NC(C)=O)[C@@H]1[C@H](O)[C@@H](C(=O)O)C[C@H]1NC(=N)N [MMV1593511] | 73.923 | 0.2364 | -10.4107 |  |
| CCCCCCCCCN1C[C@@H](O)[C@H](O)[C@@H](O)[C@@H]1CO [MMV1593513] | 80.9399 | -0.861 | -3.193 |  |
| CNC(=O)C1O[C@@H](n2cnc3c(NCc4cccc(I)c4)nc(Cl)nc32)[C@H](O)[C@@H]1O (some centres unmarked) [MMV1593514] |  | -0.4087 | 0.1534 | Viability d12 (relative viability) ([1]; 10 µM): 79.1378% |
| CCOC(=O)N[C@@H]1CC[C@@H]2[C@@H](C1)C[C@H]1C(=O)O[C@H](C)[C@H]1[C@H]2/C=C/c1ccc(-c2cccc(F)c2)cn1 [MMV1593515] | 74.5757 | 1.1006 | -17.1599 |  |
| O=C(O)[C@H]1C2CCC(CC2)[C@@H]1Nc1nc(-c2c[nH]c3ncc(F)cc23)ncc1F [MMV1593516] | 121.454 | 2.198 | -18.5586 |  |
| O=C(/C=C/n1cnc(-c2cc(C(F)(F)F)cc(C(F)(F)F)c2)n1)NNc1cnccn1 [MMV1593517] |  | 1.037 | -18.0019 | Viability d12 (relative viability) ([1]; 10 µM): 95.9515% |

| Structure (SMILES) | Viability d12 (relative viability) [1, 3] [%] | PGI d5 (relative PGI release) [2, 4] [%] | PGI d12 (relative PGI release) [2, 4] [%] | other results |
| --- | --- | --- | --- | --- |
| C[C@@]1(O)[C@H](O)[C@@H](CO)O[C@H]1n1ccc2c(N)ncnc21 [MMV1593519] | 152.992 | 0.01923 | 0.1259 |  |
| [N-]=[N+]=N[C@H]1C[C@H](n2ccc(=O)[nH]c2=O)O[C@@H]1CO [MMV1593520] | 90.373 | 0.5917 | -8.089 |  |
| CC(C)Nc1nc2cc(Cl)c(Cl)cc2n1[C@H]1O[C@@H](CO)[C@H](O)[C@@H]1O [MMV1593521] | 80.7959 | 1.092 | -0.5297 |  |
| O=C(Nc1ccc(-c2ccccc2)cc1)C1=C(O)C(Cc2ccccc2)OC1=O (centres unmarked) [MMV1593531] | 16.5533 | 4.793 | 88.1717 | Viability d12 (relative viability) [1, 5]: 49.52%; PGI d5 (relative PGI release) [2, 6]: 0.17%; PGI d12 (relative PGI release) [2, 6]: 1.55% |
| O=C(Nc1ncc(Cc2cccc3ccccc23)s1)C1CCCCC1 [MMV1593532] | 94.209 | -1.117 | -3.615 |  |
| C[C@H]1[C@@H](c2cccc(C(F)(F)F)c2)OC(=O)N1C(=O)NCc1cncc2ccccc12 [MMV1593533] | 85.501 | -2.428 | -25.2459 |  |
| CCNC(=O)Nc1cc(-c2ccccc2)c(-c2cncc(C(=O)O)c2)cn1 [MMV1593534] | 81.2426 | -2.168 | -24.3929 |  |
| CCCCCCC1c2ccc(O)cc2Oc2cc(O)ccc21 [MMV1593535] | 92.5147 | 1.318 | -18.7037 |  |
| Fc1ccc(-c2nc(-c3c[nH]c4ccc(Br)cc34)[nH]c2-c2ccc(F)cc2)cc1 [MMV1593537] | 8.099 | 27.6196 | 72.794 | Viability d12 (relative viability) [1, 5]: 69.22%; PGI d5 (relative PGI release) [2, 6]: 0.49%; PGI d12 (relative PGI release) [2, 6]: -0.0663% |
| Cl.NC1(C(=O)O)CCP(=O)(O)CC1 (centres unmarked) [MMV1593538] | 39.7446 | -1.639 | -13.1352 |  |
| O=[N+]([O-])c1ccc2c(CCc3c[nH]c4ccccc34)c[nH]c2c1 [MMV1593539] | 72.058 | 1.886 | 90.6206 |  |
| COc1ccc2cc3[n+](cc2c1OCCN(CCn1cncn1)Cc1ccc(F)cc1F)CCc1cc2c(cc1-3)OCO2 [MMV1593540] | 37.1562 | 1.275 | 36.6613 |  |
| Nc1nc(Nc2ccc3nc(-c4ccc(F)cc4)cc(N)c3c2)cc(-c2ccccc2)n1 [MMV1593541] | 23.9637 | 4.554 | -2.81 |  |
| OCCCCn1cnc2c(O)nc(NCc3ccc(Cl)c(Cl)c3)nc21 [MMV1593542] | 68.6346 | -1.805 | -12.5973 |  |
| COc1cc(C(C(=O)NC2CCCCC2)N(C(=O)Cc2c[nH]c3ccccc23)c2ccc(C(C)C)cc2)cc(OC)c1OC (centres unmarked) [MMV1593544] | 100.386 | 0.03783 | 0.3627 |  |
| CC1(C)C[C@H]1C(=O)N/C(=C\CCCCSC[C@@H](N)C(=O)O)C(=O)O.[Na+] [MMV1613559] | 85.3181 | -0.3777 | -1.053 |  |
| NC(=O)[C@@H]1CC[C@@H]2CN1C(=O)N2OS(=O)(=O)O [MMV1613560] | 46.8418 | -1.526 | -13.4159 |  |
| Cc1ncc([N+](=O)[O-])n1CC(O)CN1CCOCC1 (centres unmarked) [MMV1613562] | 97.4765 | 0.195 | -6.037 |  |
| COc1cc(Cc2cnc(N)nc2N)c2c(c1OC)OC(C1CC1)C=C2 (centres unmarked) [MMV1613563] | 145.38 | -0.539 | -1.956 |  |
